# Experimental data as given in patent US8952222B2, “Herbicide resistant sunflower plants derived from RW-B cultivar” (Anglo Netherlands Grain B.V., priority 2008, dated 2015).
# Values joined by “and” are separate entries in the source; they are usually repeats but may differ in a detail not shown here. Identical values can stand only once. Marks after values point to notes of the source that are not given here.
# What was measured:
# Assay type in all cases: in vivo
# sunflower line RW-B [1] = test: Resistance to different AHAS-inhibitor herbicides, Phytotoxicity Index (FIG. 4); conditions: concentration of at least 67 grams of active ingredient per hectare
# Description: Sunflower lines: The following genetic sunflower lines were used in determining AHAS resistance: two S lines (“B770” and “HA89”), two lines resistant to SUs derived from the population SURES (SuBL and SuRL), two lines resistant to IMIs derived from the population IMISUN (“Rha 426” and “B770imi”) and the line “RW-B”. […] SURES and IMISUN are breeding populations release by the USDA. B770 is a proprietary line from Nidera. B770imi is a proprietary line with B770 background carrying the resistant gene Imr1. RW-B was obtained as described above.
# Plants were grown in a greenhouse under natural light conditions supplemented with 400 W halide lamps to provide a 14 h day length. Day/night temperatures were 25 and 20° C., respectively. […] Plants without any symptoms were recorded as “0,” increasing levels of stunting and yellowing with respect to the untreated control plants were recorded as “1” to “4,” increasing levels of leaf abnormalities and leaf necrosis were recorded from “5” to “8,” and dead plants with total necrosis of the apex were recorded as “9.” PI data for each experiment were analyzed by an ANOVA test, means were compared by a LSD test.
# Response of sunflower lines (B770, HA89, SuBL, SuRL, Rha426, B770imi and RW-B) to four different families of AHAS inhibiting herbicides. […] The injury was measured using Phytotoxicity Index (PI).
# sunflower line B770 [2] = test: Greenhouse spray with imazapyr, visual inspection for injury; conditions: imazapyr 80 gr ai/ha, two weeks after treatment
# Experimental: (§1) 300 seeds of a wild sunflower population known to be tolerant to IMIs were sown under greenhouse conditions at Nidera Experimental Station in Venado Tuerto, Santa Fe, Argentina, together with the control lines HA89, B770 (Susceptible—[…]), BTI-M1 and RHA426 (Resistant—“R”). At the V4 stage all the plants were sprayed with imazapyr at a rate of 80 gr ai/ha. Two weeks after treatment, all the plants were evaluated by visual inspection for injury. S lines HA89 and B770 were killed by the treatment. […] In total, […] plants of the wild population resisted the herbicide treatment and 129 were killed (categorized as S).
# One R plant (RW-73) was used as male in crosses with the cultivated susceptible lines HA89 and B770. Ten to 20 F1 plants from each cross were sprayed with imazapyr at a rate of 80 gr ai/ha, using B770 (S) and BTI-M1 (R) as controls. […] However, imazapyr treatment killed the B770 plants.
# sunflower line RHA426 [3] = test: Allelism test, challenge with imazapyr; conditions: control line RHA426; imazapyr 320 g a.i. ha-1 at V2-V4
# Description: RW-B plants were crossed with RHA426 in order to determine if the resistant gene in RW-B is allelic to Imr1, the mutation previously described in imidazolinone resistant inbred lines. In this cross, F1 hybrids plants were self pollinated and backcrossed to RHA426 to obtain the F2 and BC1F1 generations, respectively. Plants from the parents and from F1, F2 and BC were challenged with 160 g a.i. ha^−1 and 320 g a.i. ha^−1 of imazapyr at the V2-V4 stage. Post challenge, plants were scored as described above.
# On the other hand, when F2 and BC populations were scored after applying herbicide at the higher rate (320 g a.i. ha^−1), segregation for susceptibility could be observed. Only two phenotypic classes were detected, a resistant class composed of plants that were without any sign of injury or only slight symptoms, and a susceptible phenotype that was killed at this dose in much the same way as the control line RHA426.
# sunflower line RW-B [4] = test: Whole plant dose response to imazapyr; conditions: from 4x to 10x rates of herbicide application, 14 DAT
# Experimental: (§2) Seeds were sown in Petri dishes and, after germination; plantlets were transplanted to pots of 10 cm of diameter in a potting media consisting of equal parts of vermiculite, soil and sand. Plants were grown in a greenhouse under natural light conditions supplemented with 400 W sodium halide lamps to provide a 16 hr day-length. Day/night temperatures were 25 and 20° C., respectively. At the V2-V4 stage (Schneiter & Miller, 1981) 10 plants of each genotype were randomly assigned to each treatment consisting of eight imazapyr doses (0, 40, 80, 160, 320, 480, 640 and 800 g ai/ha, without treatment, 0.5×, 1×, 2×, 4×, 6×, 8× and 10× respectively), and a zero-time biomass determination. Experiment was arranged as a randomized block design with a full factorial (sunflower line x treatment) arrangement of treatments and 10 replications.
# (§3) On the day of herbicide application ten plants of each genotype were cut at the cotyledonal node and dried at 60° C. for 48 hrs for zero-time dried weight determination.
# (§4) The remaining plants were maintained for 14 days after imazapyr treatment (DAT) and their height, Phytotoxicity Index (PI) and above ground dry biomass were determined. Height was determined as the distance between the cotyledonal node and the apex of each plant. Above ground biomass data from each line were converted to biomass accumulation after application by subtracting the appropriate average zero-time biomass from each sample. Dry biomass data were converted to percentages of the untreated control plants within each line to allow direct comparisons between groups. […] Plants without any symptoms were recorded as “0”, increasing levels of stunting and chlorosis with respect to the untreated control plants were recorded as “1” to “4”, increasing levels of leaf abnormalities and leaf necrosis were recorded from “5” to “8”, and dead plants with total necrosis of the apex were recorded as “9”.
# sunflower line B770 [5] = test: Whole plant dose response to imazapyr; conditions: line B770 (WT-Susceptible), 14 DAT; for Dry weight (as a % of the untreated plants): above ground biomass; for Phytotoxicity Index: scale 0-9
# Experimental: as §2, §3, §4
# sunflower line RHA426 [6] = test: Greenhouse spray with imazapyr, visual inspection for injury; conditions: imazapyr 80 gr ai/ha at V4, two weeks after treatment
# Experimental: as §1
# sunflower line HA89 = test: as above; conditions: imazapyr 80 gr ai/ha at V4, two weeks after treatment
# Experimental: as §1
# sunflower line BTI-M1 = test: as above; conditions: imazapyr 80 gr ai/ha at V4, two weeks after treatment
# Experimental: as §1
smiles,measurement,setting,value
CCOc1nc(F)cc2nc(S(=O)(=O)Nc3c(Cl)cccc3C(=O)OC)nn12 [cloransulam-methyl],resistance of RW-B,sunflower line RW-B [1],resistance
CC(C)C1(C)N=C(c2ncccc2C(=O)O)NC1=O (stereo not shown) [imazapyr],injury by visual inspection,sunflower line B770 [2],killed
same,response to imazapyr,sunflower line RHA426 [3],killed
same,"height, % of the untreated control plants",sunflower line RW-B [4],75%
same,Dry weight (as a % of the untreated plants),sunflower line B770 [5]; imazapyr 0.5x = 40 g ai/ha,32.7^d %
same,Dry weight (as a % of the untreated plants),sunflower line B770 [5]; imazapyr 1x = 80 g ai/ha,30.2^d %
same,Dry weight (as a % of the untreated plants),sunflower line B770 [5]; imazapyr 2x = 160 g ai/ha,27.6^d %
same,Dry weight (as a % of the untreated plants),sunflower line B770 [5]; imazapyr 4x = 320 g ai/ha,26.5^d %
same,Dry weight (as a % of the untreated plants),sunflower line B770 [5]; imazapyr 6x = 480 g ai/ha,25.9^d %
same,Dry weight (as a % of the untreated plants),sunflower line B770 [5]; imazapyr 8x = 640 g ai/ha,25.7^d %
same,Dry weight (as a % of the untreated plants),sunflower line B770 [5]; imazapyr 10x = 800 g ai/ha,25.2^d %
same,Height (as % of the untreated plants),sunflower line B770 [5]; imazapyr 0.5x = 40 g ai/ha,35.0% and 35.0^c %
same,Phytotoxicity Index,sunflower line B770 [5]; imazapyr 0.5x = 40 g ai/ha,8.9^a
same,Height (as % of the untreated plants),sunflower line B770 [5]; imazapyr 1x = 80 g ai/ha,31.8^c %
same,Phytotoxicity Index,sunflower line B770 [5]; imazapyr 1x = 80 g ai/ha,9^a
same,Height (as % of the untreated plants),sunflower line B770 [5]; imazapyr 2x = 160 g ai/ha,31.9^d %
same,Phytotoxicity Index,sunflower line B770 [5]; imazapyr 2x = 160 g ai/ha,9^a
same,Height (as % of the untreated plants),sunflower line B770 [5]; imazapyr 4x = 320 g ai/ha,31.9^d %
same,Phytotoxicity Index,sunflower line B770 [5]; imazapyr 4x = 320 g ai/ha,9^a
same,Height (as % of the untreated plants),sunflower line B770 [5]; imazapyr 6x = 480 g ai/ha,31.6^d %
same,Phytotoxicity Index,sunflower line B770 [5]; imazapyr 6x = 480 g ai/ha,9^a
same,Height (as % of the untreated plants),sunflower line B770 [5]; imazapyr 8x = 640 g ai/ha,31.7^d %
same,Phytotoxicity Index,sunflower line B770 [5]; imazapyr 8x = 640 g ai/ha,9^a
same,Height (as % of the untreated plants),sunflower line B770 [5]; imazapyr 10x = 800 g ai/ha,31.4^c %
same,Phytotoxicity Index,sunflower line B770 [5]; imazapyr 10x = 800 g ai/ha,9^a
same,injury by visual inspection,sunflower line RHA426 [6],signs of chlorosis
same,injury by visual inspection,sunflower line HA89,killed
same,injury by visual inspection,sunflower line BTI-M1,did not present any signs of damage
